# Patent US6680178B2, “Profiling of protease specificity using combinatorial fluorogenic substrate libraries” (The Regents of the University of California, priority 2000, dated 2004)
# Non-standard residues stand in square brackets, D forms with d. Residues, ends and D or L forms follow the SMILES beside them. *: point of attachment. ACC = NC(=O)Cc1cc(=O)oc2cc(N*)ccc12; AMC = Cc1cc(=O)oc2cc(N*)ccc12; Nle = CCCC[C@H](N)C(=O)O; CH2Cl = ClC*
# How the values were obtained:
# [1] = molecular target: T1, βI Tryptase (Homo sapiens, UniProt Q15661); assay: Single substrate kinetic analysis, βI tryptase; assay type: biochemical; conditions: for Km: βI Tryptase, 30° C., pH 7.5
# T1 construct: Secreted mature βI and βII tryptases were purified to homogeneity; made in house; host or cells: Pichia pastoris GS115
# T1 sequence (Q15661 31-275): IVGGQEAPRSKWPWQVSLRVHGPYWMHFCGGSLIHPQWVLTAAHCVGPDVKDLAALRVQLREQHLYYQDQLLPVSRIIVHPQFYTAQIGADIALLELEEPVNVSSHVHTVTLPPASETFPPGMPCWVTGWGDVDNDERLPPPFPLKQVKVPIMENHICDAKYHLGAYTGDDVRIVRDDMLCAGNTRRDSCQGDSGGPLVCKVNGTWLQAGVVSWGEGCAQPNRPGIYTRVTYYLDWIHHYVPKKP
# Protocol: (§1) Tryptase activity was monitored at 30° C. in assay buffer containing 100 mM HEPES pH 7.5 and 10% glycerol. Substrate stock solutions were prepared in DMSO. The final concentration of substrate ranged from 0.005-2 mM. The concentration of DMSO in the assay was less than 5%. The tryptase concentration was 5 nM. Hydrolysis of ACC substrates was monitored fluorometrically with an excitation wavelength of 380 nm and emission wavelength of 450 nm on a Fluoromax-2 spectrofluorimeter (JY Horiba).
# [2] = molecular target: T2, βII Tryptase (Homo sapiens, UniProt Q15661, N132K); assay: Single substrate kinetic analysis, βII tryptase; assay type: biochemical; conditions: for Km: βII Tryptase, 30° C., pH 7.5
# T2 construct: Secreted mature βI and βII tryptases were purified to homogeneity; made in house; host or cells: Pichia pastoris GS115
# T2 sequence (Q15661 31-275 N132K): as the sequence (Q15661 31-275) above, with N102K counted along it
# Protocol: as §1
# [3] = Fluorescence properties of free and peptidyl-derivatized ACC and AMC; assay type: physicochemical; conditions: for λmax, em / λmax, ex: 25° C.; for RFU/nM1 / RFU/nM2: λex = 380 nm; for RFU/nM1: λem = 450 nm; for RFU/nM2: λem = 460 nm
# Protocol: The fluorescence of free ACC and peptidyl-derivatized ACC was detected on a Spex fluorometer thermostated to 25° C. Excitation wavelengths of 300-410 nm, 5 nm intervals, were used with emission wavelengths of 410-500 nm, 5 nm intervals, to determine optimal excitation and emission parameters.
# [4] = molecular target: T3, thrombin (Homo sapiens, UniProt P00734); assay: Single substrate kinetic assay with thrombin (ACC vs AMC leaving group); assay type: biochemical; conditions: thrombin 5-20 nM
# T3 construct: Human thrombin, plasmin, and factor Xa were used as received; purchased Haematologic Technologies Inc. (Essex Jct., Vt.)
# Protocol: (§2) Thrombin concentration ranged from 5-20 nM. The final concentration of substrate ranged from 0.005-2 mM, the concentration of DMSO in the assay was less than 5%. Hydrolysis of AMC and ACC substrates was monitored fluorometrically with an excitation wavelength of 380 nm and emission wavelength of 460 nm on a Fluoromax-2 spectrofluorometer. Cruzain (10 nM) was incubated with 600 μM of the Ac-Leu-Thr-Phe-Lys-ACC substrate. Aliquots were removed at various time points and applied to a C-18 reverse-phase HPLC column with a 10-40% gradient of 95:4.9:0.1 Acetonitrile:H2O:TFA. MALDI (PE Biosystems Voyager) mass spectrometry data was collected on the HPLC fractions.
# [5] = molecular target: T2, βII Tryptase; assay: Irreversible inhibitor kinetic analysis (progress curves), βII tryptase; assay type: biochemical; conditions: tryptase 1 nM, 30° C., 100 μM Ac-PRNK-ACC substrate
# Protocol: (§3) Progress curves were obtained for tryptase (1 nM) inactivation by multiple concentrations of Ac-PRNK-cmk (50 nM to 10 μM). Activity was monitored at 30° C. in activity buffer with 100 μM Ac-PRNK-ACC substrate. The rate constant for loss of enzyme activity, kobs, was determined from a non-linear regression of the progress curve data. kobs varied linearly with inhibitor concentration. Therefore, kass, the rate constant for the inactivation of enzyme with inhibitor, was determined by linear regression analysis (Bieth, J. G. Methods in Enzymology 248: 59-84 (1995)). Several P1-basic-preferring proteases were monitored for inhibition by Ac-PRNK-cmk as follows: tryptase bI (50 nM), tryptase bII (50 nM), factor Xa (50 nM), tPA (50 nM), uPA (50 nM), thrombin (1 nM), and plasmin (5 nM) were incubated for 5 minutes with 0 μM, 10 μM, 100 μM Ac-PRNK-cmk. After incubation, residual activity was monitored as follows: Ac-PRNK-ACC was added to a final concentration of 5 μM to the samples containing tryptase βI and βII; Ac-GTAR-ACC (5 μM) was added to the factor Xa and tPA samples; Ac-QFAR-ACC (5 μM) was added to the uPA samples; Ac-nTPR-ACC (5 μM) was added to the thrombin samples; and Ac-KQWK-ACC (5 μM) was added to plasmin samples.
# (§4) Progress curves were obtained for tryptase (1 nM) inactivation by multiple concentrations of Ac-PRNK-cmk (50 nM to 10 μM). […]
# [6] = test system: Factor Xa; assay: Protease inhibition by Ac-PRNK-cmk, residual activity; assay type: biochemical, human; conditions: 100 μM Ac-PRNK-cmk, 5 minutes incubation, enzyme 50 nM
# Protocol: as §3, §4
# [7] = molecular target: T4, Tryptase βII (Homo sapiens, UniProt Q15661, N132K); assay: as above; assay type: biochemical; conditions: 10 μM Ac-PRNK-cmk, 5 minutes incubation, enzyme 50 nM
# T4 construct: Secreted mature βI and βII tryptases were purified to homogeneity; made in house; host or cells: Pichia pastoris GS115
# T4 sequence (Q15661 31-275 N132K): as the sequence (Q15661 31-275) above, with N102K counted along it
# Protocol: as §3
# as §3, with “(Bieth” for “(Bieth, J. G. Methods in Enzymology 248: 59-84”, “bIl” for “bII”
# [8] = molecular target: T5, tPA (Homo sapiens, UniProt P00750); assay: as above; assay type: biochemical; conditions: 100 μM Ac-PRNK-cmk, 5 minutes incubation, enzyme 50 nM
# T5 construct: purchased American Diagnostica (Greenwich, Conn.)
# T5 sequence (P00750 36-562): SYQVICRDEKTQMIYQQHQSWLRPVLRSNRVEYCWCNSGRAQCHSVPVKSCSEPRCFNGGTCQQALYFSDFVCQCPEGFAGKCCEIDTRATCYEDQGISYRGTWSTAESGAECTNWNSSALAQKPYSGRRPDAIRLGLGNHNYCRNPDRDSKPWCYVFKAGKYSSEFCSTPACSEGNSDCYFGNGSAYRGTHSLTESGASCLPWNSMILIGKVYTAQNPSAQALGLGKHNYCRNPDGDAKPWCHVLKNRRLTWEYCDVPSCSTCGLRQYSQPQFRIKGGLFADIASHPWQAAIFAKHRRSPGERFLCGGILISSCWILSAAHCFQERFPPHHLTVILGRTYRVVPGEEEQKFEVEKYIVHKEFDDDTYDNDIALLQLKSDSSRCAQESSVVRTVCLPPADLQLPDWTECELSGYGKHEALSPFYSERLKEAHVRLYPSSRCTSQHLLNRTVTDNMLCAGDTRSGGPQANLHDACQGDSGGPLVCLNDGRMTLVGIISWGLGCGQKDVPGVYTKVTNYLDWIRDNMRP
# Protocol: as §3
# as §3, with “(Bieth” for “(Bieth, J. G. Methods in Enzymology 248: 59-84”, “bIl” for “bII”
# [9] = molecular target: T6, uPA (Homo sapiens, UniProt P00749); assay: as above; assay type: biochemical; conditions: 100 μM Ac-PRNK-cmk, 5 minutes incubation, enzyme 50 nM
# T6 construct: purchased American Diagnostica (Greenwich, Conn.) or Calbiochem (San Diego, Calif.)
# Protocol: as §3
# as §3, with “(Bieth” for “(Bieth, J. G. Methods in Enzymology 248: 59-84”, “bIl” for “bII”
# [10] = molecular target: T7, Plasmin (Homo sapiens, UniProt P00747); assay: as above; assay type: biochemical; conditions: 100 μM Ac-PRNK-cmk, 5 minutes incubation, enzyme 5 nM
# T7 construct: Human thrombin, plasmin, and factor Xa were used as received; purchased Haematologic Technologies Inc. (Essex Jct., Vt.)
# T7 sequence (P00747 581-810 limits assumed): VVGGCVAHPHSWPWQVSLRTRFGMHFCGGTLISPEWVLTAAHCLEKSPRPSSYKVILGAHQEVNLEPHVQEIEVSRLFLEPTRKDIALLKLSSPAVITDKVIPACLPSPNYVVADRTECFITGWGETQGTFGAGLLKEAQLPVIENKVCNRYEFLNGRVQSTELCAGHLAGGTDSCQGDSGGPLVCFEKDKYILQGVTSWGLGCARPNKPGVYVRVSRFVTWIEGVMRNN
# T7 sequence (P00747 97-580 partner limits assumed): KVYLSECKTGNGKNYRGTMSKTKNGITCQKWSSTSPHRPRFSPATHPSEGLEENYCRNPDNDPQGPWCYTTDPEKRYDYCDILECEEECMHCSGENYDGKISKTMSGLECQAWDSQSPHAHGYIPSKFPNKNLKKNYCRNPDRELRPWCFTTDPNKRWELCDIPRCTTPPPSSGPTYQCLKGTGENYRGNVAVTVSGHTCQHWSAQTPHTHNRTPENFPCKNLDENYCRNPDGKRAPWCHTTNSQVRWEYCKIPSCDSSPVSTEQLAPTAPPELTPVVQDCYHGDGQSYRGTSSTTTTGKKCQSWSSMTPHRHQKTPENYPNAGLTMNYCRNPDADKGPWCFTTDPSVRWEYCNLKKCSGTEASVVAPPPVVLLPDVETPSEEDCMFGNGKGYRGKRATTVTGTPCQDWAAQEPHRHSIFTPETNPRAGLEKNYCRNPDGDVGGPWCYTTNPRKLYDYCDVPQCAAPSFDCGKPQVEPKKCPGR
# Protocol: as §3
# as §3, with “(Bieth” for “(Bieth, J. G. Methods in Enzymology 248: 59-84”, “bIl” for “bII”
# [11] = molecular target: T8, Tryptase βI (Homo sapiens, UniProt Q15661); assay: as above; assay type: biochemical; conditions: 10 μM Ac-PRNK-cmk, 5 minutes incubation, enzyme 50 nM
# T8 construct: Secreted mature βI and βII tryptases were purified to homogeneity; made in house; host or cells: Pichia pastoris GS115
# T8 sequence (Q15661 31-275): as the sequence (Q15661 31-275) above
# Protocol: as §3
# as §3, with “(Bieth” for “(Bieth, J. G. Methods in Enzymology 248: 59-84”, “bIl” for “bII”
# [12] = molecular target: T3, thrombin; assay: as above; assay type: biochemical; conditions: 100 μM Ac-PRNK-cmk, 5 minutes incubation, enzyme 1 nM
# Protocol: as §3
# as §3, with “(Bieth” for “(Bieth, J. G. Methods in Enzymology 248: 59-84”, “bIl” for “bII”
# [13] = molecular target: T1, βI Tryptase; assay: Irreversible inhibitor kinetic analysis (progress curves), βI tryptase; assay type: biochemical; conditions: tryptase 1 nM, 30° C., 100 μM Ac-PRNK-ACC substrate
# Protocol: as §3, §4
# [14] = molecular target: T9, cruzain (Trypanosoma cruzi, UniProt P25779); assay: Incubation of single substrate with cruzain and analysis of cleavage products (HPLC, MALDI); assay type: biochemical; conditions: cruzain 10 nM, 600 μM substrate; data not shown
# T9 construct: made in house
# T9 sequence (P25779 123-337): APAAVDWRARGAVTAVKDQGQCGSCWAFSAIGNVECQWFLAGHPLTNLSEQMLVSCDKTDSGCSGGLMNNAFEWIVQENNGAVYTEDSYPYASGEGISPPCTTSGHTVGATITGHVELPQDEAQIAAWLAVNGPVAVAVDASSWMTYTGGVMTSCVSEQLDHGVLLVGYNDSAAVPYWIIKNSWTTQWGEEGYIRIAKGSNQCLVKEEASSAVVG
# Protocol: as §2
# [15] = range stated over tryptase βI and βII
molecule,measurement,setting,value
CC(=O)N1CCC[C@H]1C(=O)N[C@@H](CCCNC(=N)N)C(=O)N[C@@H](CC(N)=O)C(=O)N[C@@H](CCCCN)C(=O)Nc1ccc2c(CC(N)=O)cc(=O)oc2c1 [Ac-PRNK-ACC] (Ac-PRNK-{ACC}),Km,[1],8.9 ± 0.9 µM
same,Km,[2],14.5 ± 1.9 µM
7-Nle-Thr-Pro-Lys-AMC [reference compound],"λmax, em",[3],390 nm
same,"λmax, ex",[3],330 nm
same,RFU/nM1,[3],3.3 RFU/nM
same,RFU/nM2,[3],2.2 RFU/nM
7-Nle-Thr-Pro-Lys-ACC,"λmax, em",[3],400 nm
same,"λmax, ex",[3],325 nm
same,RFU/nM1,[3],6.4 RFU/nM
same,RFU/nM2,[3],4.6 RFU/nM
CC(=O)N[C@@H](CC(C)C)C(=O)NCC(=O)N1CCC[C@H]1C(=O)N[C@@H](CCCCN)C(=O)Nc1ccc2c(C)cc(=O)oc2c1 [Ac-Leu-Gly-Pro-Lys-AMC] (Ac-LGPK-{AMC}),Km,[4],160 ± 25 µM
same,kcat,[4],2.3 ± 0.2 s⁻¹
CCCC[C@H](NC(C)=O)C(=O)N[C@H](C(=O)N1CCC[C@H]1C(=O)N[C@@H](CCCCN)C(=O)Nc1ccc2c(CC(N)=O)cc(=O)oc2c1)[C@@H](C)O [Ac-Nle Thr-Pro-Lys--ACC] (Ac-[Nle]TPK-{ACC}),Km,[4],125 ± 13 µM
Ac-PRNK-CH2Cl,"association rate constant, kass",[5],5000 ± 200 M⁻¹ s⁻¹
same,Percent Inhibition,[6],0
same,Percent Inhibition,[7],95
same,Percent Inhibition,[8],0
same,Percent Inhibition,[9],34
same,Percent Inhibition,[10],63
same,Percent Inhibition,[11],95
same,Percent Inhibition,[12],0
same,"association rate constant, kass",[13],5000 ± 200 M⁻¹ s⁻¹
CC(=O)N1CCC[C@H]1C(=O)N[C@@H](CCCNC(=N)N)C(=O)N[C@@H](CC(N)=O)C(=O)N[C@@H](CCCNC(=N)N)C(=O)Nc1ccc2c(CC(N)=O)cc(=O)oc2c1 [Ac-PRNR-ACC] (Ac-PRNR-{ACC}),activity relative to Ac-PRNK-ACC substrate,[1]; [15],70-90%
same,Km,[1],16.5 ± 2.7 µM
same,activity relative to Ac-PRNK-ACC substrate,[2]; [15],70-90%
same,Km,[2],18.6 ± 2.6 µM
CC(=O)N1CCC[C@H]1C(=O)N[C@@H](C)C(=O)N[C@@H](CC(N)=O)C(=O)N[C@@H](CCCCN)C(=O)Nc1ccc2c(CC(N)=O)cc(=O)oc2c1 [Ac-PANK-ACC] (Ac-PANK-{ACC}),Km,[1],111 ± 9.8 µM
same,Km,[2],133 ± 15.6 µM
Ac-Leu-Thr-Phe-Lys-ACC (Ac-LTFK-{ACC}; SMILES CC(=O)N[C@@H](CC(C)C)C(=O)N[C@H](C(=O)N[C@@H](Cc1ccccc1)C(=O)N[C@@H](CCCCN)C(=O)Nc1ccc2c(CC(N)=O)cc(=O)oc2c1)[C@@H](C)O),cleavage products observed,[14],cleavage between Thr-Phe
CC(=O)N[C@@H](CC(C)C)C(=O)NCC(=O)N1CCC[C@H]1C(=O)N[C@@H](CCCCN)C(=O)Nc1ccc2c(CC(N)=O)cc(=O)oc2c1 [Ac-Leu-Gly-Pro-Lys--ACC] (Ac-LGPK-{ACC}),Km,[4],195 ± 30 µM
"NC(=O)Cc1cc(=O)oc2cc(N)ccc12 [7-Amino-4-Carbamoylmethyl-coumarin (ACC), 7-amino-4-carbamoylmethyl-coumarin]","λmax, em",[3],450 nm
same,"λmax, ex",[3],350 nm
same,fluorescence yield relative to the AMC coumarin,"[3]; excitation 380 nm, emission 460 nm",approximately 2.8 fold
same,RFU/nM1,[3],5750 RFU/nM
same,RFU/nM2,[3],4390 RFU/nM
CC(=O)N1CCC[C@H]1C(=O)N[C@@H](CCCNC(=N)N)C(=O)N[C@H](C(=O)N[C@@H](CCCCN)C(=O)Nc1ccc2c(CC(N)=O)cc(=O)oc2c1)[C@@H](C)O [Ac-PRTK-ACC] (Ac-PRTK-{ACC}),Km,[1],14.7 ± 1.4 µM
same,Km,[2],23.4 ± 2.3 µM
CCCC[C@H](NC(C)=O)C(=O)N[C@H](C(=O)N1CCC[C@H]1C(=O)N[C@@H](CCCCN)C(=O)Nc1ccc2c(C)cc(=O)oc2c1)[C@@H](C)O [Ac-Nle-Thr-Pro-Lys-AMC] (Ac-[Nle]TPK-{AMC}),Km,[4],115 ± 10 µM
same,kcat,[4],31.0 ± 0.9 s⁻¹
